Results on three compounds are retold here after patent US8143414B2, “Hepatitis C virus inhibitors” (Bristol-Myers Squibb Company, priority 2009, dated 2012).

For orientation: EC50 means the midpoint of the concentration-response curve.

In the assay the test system is HCV 1b genotype. Put plainly: HCV replicon assay, 1b genotype. The class given is cell-based. To be noted: Hepatitis C virus; HCV 1b genotype replicon; EC50 = effective 50% inhibitory concentration. As for the experimental part:
An HCV Replion assay was utilized in the present disclosure, and was prepared, conducted and validated as described in commonly owned PCT/US2006/022197 and in O'Boyle et. al. Antimicrob Agents Chemother. 2005 April; 49(4):1346-53. Assay methods incorporating luciferase reporters have also been used as described (Apath.com).
HCV-neo replicon cells and replicon cells containing mutations in the NS5A region were used to test the currently described family of compounds. The compounds were determined to have more than 10-fold less inhibitory activity on cells containing mutations than wild-type cells. Thus, the compounds of the present disclosure can be effective in inhibiting the function of the HCV NS5A protein and are understood to be as effective in combinations as previously described in application PCT/US2006/022197 and commonly owned WO/04014852. Further, the compounds of the present disclosure can be effective against the HCV 1b genotype. It should also be understood that the compounds of the present disclosure can inhibit multiple genotypes of HCV. […] In one embodiment, compounds of the present disclosure are inhibitory versus 1a, 1b, 2a, 2b, 3a, 4a, and 5a genotypes.
Turning to `COC(=O)N[C@H](C(=O)N1CCC[C@H]1c1ncc(-c2nc3cc4sc(-c5cnc([C@@H]6CCCN6C(=O)[C@@H](NC(=O)OC)C(C)C)[nH]5)nc4cc3s2)[nH]1)C(C)C` [Example 1, Methyl ((1S)-1-(((2S)-2-(4-(6-(2-((28)-1-((2S)-2-((methoxycarbonyl)amino)-3-methylbutanoyl)-2-pyrrolidinyl)-1H-imidazol-4-yl)[1,3]thiazolo[5,4-f][1,3]benzothiazol-2-yl)-1H-imidazol-2-yl)-1-pyrrolidinyl)carbonyl)-2-methylpropyl)carbamate, bistrifluoracetate], the EC50 is 0.034 nM.
In the case of `COC(=O)N[C@@H](C(=O)N1CCC[C@H]1c1ncc(-c2nc3cc4sc(-c5cnc([C@@H]6CCCN6C(=O)[C@H](NC(=O)OC)c6ccccc6)[nH]5)nc4cc3s2)[nH]1)c1ccccc1` [Example 2, Dimethyl ([1,3]thiazolo[5,4-f][1,3]benzothiazole-2,6-diylbis(1H-imidazole-4,2-diyl(2S)-2,1-pyrrolidinediyl((1R)-2-oxo-1-phenyl-2,1-ethanediyl)))biscarbamate, bistrifluoracetate], the EC50 was determined as 0.025 nM.
Then `COC(=O)N[C@@H](C(=O)N1CCC[C@H]1c1ncc(-c2nc3cc4sc(-c5cnc([C@@H]6CCCN6C(=O)[C@H](NC(=O)OC)C(C)C)[nH]5)nc4cc3s2)[nH]1)C(C)C` [Example 3, Methyl ((1R)-1-(((2S)-2-(4-(6-(2-((2S)-1-((2R)-2-((methoxycarbonyl)amino)-3-methylbutanoyl)-2-pyrrolidinyl)-1H-imidazol-4-yl)[1,3]thiazolo[5,4-f][1,3]benzothiazol-2-yl)-1H-imidazol-2-yl)-1-pyrrolidinyl)carbonyl)-2-methylpropyl)carbamate, bistrifluoracetate], with 350 nM.
